{"source": "patent EP2386565A2", "about": "“Compounds and methods to inhibit or augment an inflammatory response” (Cambridge Enterprise Ltd., priority 1999, dated 2000)", "key": {"[1]": {"experiment": "Stability against acid hydrolysis", "type": "physicochemical", "conditions": "pH 2.0 for 2 hrs at 37°C", "description": "(§1) For example, to prepare a peptide 3 derivative, peptide 3(3-12)[MCP-1] was modified according to Jameson et al. (Nature, 368, 744 (1994)), which yielded CRD-Cys13Leu4Ile11peptide 3(3-12)[MCP-1] (Figure 3)."}, "[2]": {"tested_on": "ovalbumin-induced pulmonary inflammation, IgE, IL-4 and recall responses", "experiment": "Ovalbumin-induced asthma / hypersensitivity model", "type": "in vivo, mice", "conditions": "Group 4: Ova on days 8, 15, 18, 21 & 35, treat BID 14 days, sacrifice day 35 (recent Ova challenge), 0 µg/ml Ova"}, "trypsin": {"tested_on": "trypsin", "experiment": "Stability against enzymatic destruction", "type": "in vitro ADME", "conditions": "5 units trypsin for 2 hrs at 37°C", "description": "as §1"}, "[3]": {"tested_on": "ovalbumin-induced pulmonary inflammation, IgE, IL-4 and recall responses", "experiment": "Ovalbumin-induced asthma / hypersensitivity model", "type": "in vivo, mice", "parameters": "Total IgE (Serum), individual mice m1-m4 / Total IgE (Serum), Avg.: unit not given here", "procedure": "A third study assessed the efficacy of daily dosing with CRD-Leu4Ile11Cys13 peptide 3(3-12)[MCP-1] to reduce OVA-induced pulmonary inflammation. Mice were sensitized with 0.1 mg of ovalbumin or PBS (diluent control) intraperitoneally in the absence of the test agent. […] These treatments were given daily from day 8 through day 21. On day 8, thirty minutes following treatment, mice were challenged intratracheally with 1% ovalbumin or PBS. On days 15, 18, and 21, thirty minutes following treatment, mice were challenged intratracheally with 2% ovalbumin or PBS. Mice were sacrificed 3 hours post-ovalbumin challenge, on day 21. Lungs were collected for histopathology, and for isolation of cells for total cell counts and FACS analysis. Bronchalveolar lavage (BAL) was collected for eicosinoid levels. Serum was collected for IgE and IL-4 levels. Spleens were collected for cytokine recall responses. […]"}, "[4]": {"conditions": "Group 2: Ova on days 8, 15, 18, 21, treat 1 × day 21, sacrifice day 21, 0 µg/ml Ova"}, "[5]": {"conditions": "Group 4: Ova on days 8, 15, 18, 21 & 35, treat BID 14 days, sacrifice day 35 (recent Ova challenge), 0 µg/ml Ova"}}, "note": "Where “and” joins values, the source holds several entries; their conditions need not be identical. Identical values can stand only once. Positions of bridges follow the written chain, without caps; N, C: chain ends. Non-standard residues stand in square brackets, D forms with d. Residues, ends and D or L forms follow the SMILES beside them.", "data": [{"smiles": "CC[C@@H](C)[C@H]1NC(=O)[C@@H](CCC(N)=O)NC(=O)[C@H](N)CSSC[C@H](C(N)=O)NC(=O)[C@@H](CC(C)C)NC(=O)[C@@H](CC(=O)O)NC(=O)[C@H]2CCCN2C(=O)[C@@H](CCCCN)NC(=O)[C@@H](CCC(N)=O)NC(=O)[C@@H](CCCCN)NC(=O)[C@@H](Cc2c[nH]c3ccccc23)NC1=O", "note": "(H-[dC][dQ][dI][dW][dK][dQ][dK][dP][dD][dL][dC]-NH2; disulfide 1-11)", "values": [{"measurement": "degradation by acid hydrolysis", "setting": "[1]", "result": "< 10", "unit": "%"}, {"measurement": "IL-4 Assays, pg/ml IL-4, individual mice m1-m4", "setting": "[2]", "result": "2.61 pg/mL and 1.11 pg/mL and 5.08 pg/mL and 2.88 pg/mL"}, {"measurement": "Total IgM + IgG (1 week splenocyte cultures), individual mice m1-m4", "setting": "[2]; listed as CRD-Leu4Ile11Cys13 peptide 3(3-12)[MCP]", "result": "15.32 and 25.86 and 14.87 and 12.60"}, {"measurement": "stability against enzymatic destruction (in words)", "setting": "trypsin", "result": "stable"}, {"measurement": "Total IgE (Serum), Avg.", "setting": "[3]; Group 2", "result": 1.505}, {"measurement": "Total IgE (Serum), individual mice m1-m4", "setting": "[3]; Group 2 (single treatment day 21)", "result": "1.952 and 1.132 and 2.073 and 0.863"}, {"measurement": "IL-4 Assays, pg/ml IL-4, Avg. of Group", "setting": "[3]; [4]", "result": 2.89, "unit": "pg/mL"}, {"measurement": "IL-4 Assays, pg/ml IL-4, individual mice m1-m4", "setting": "[3]; [4]", "result": "2.81 pg/mL and 5.60 pg/mL and 0.25 pg/mL and 0.45 pg/mL"}, {"measurement": "Total IgM + IgG (1 week splenocyte cultures), Avg.", "setting": "[3]; [4]", "result": 57.45}, {"measurement": "Total IgM + IgG (1 week splenocyte cultures), individual mice m1-m4", "setting": "[3]; [4]", "result": "108.00 and 24.97 and 40.65 and 56.17"}, {"measurement": "Total IgE (1 week splenocyte cultures)", "setting": "[3]; Group 2, 0 µg/ml Ova", "result": 0.067, "unit": "ng/mL"}, {"measurement": "Total IgE (1 week splenocyte cultures), Avg.", "setting": "[3]; Group 2, 0 µg/ml Ova", "result": 0.017}, {"measurement": "Total IgE (1 week splenocyte cultures), individual mice m1-m4", "setting": "[3]; Group 2, 0 µg/ml Ova", "result": "0.000 and 0.051 and 0.007 and 0.009"}, {"measurement": "IL-4 Assays, pg/ml IL-4, Avg. of Group", "setting": "[3]; Group 2, 5 µg/ml Ova", "result": 5.86, "unit": "pg/mL"}, {"measurement": "IL-4 Assays, pg/ml IL-4, individual mice m1-m4", "setting": "[3]; Group 2, 5 µg/ml Ova", "result": "3.18 pg/mL and 8.55 pg/mL"}, {"measurement": "Total IgE (1 week splenocyte cultures)", "setting": "[3]; Group 2, 5 µg/ml Ova", "result": 0.128, "unit": "ng/mL"}, {"measurement": "Total IgE (1 week splenocyte cultures), Avg.", "setting": "[3]; Group 2, 5 µg/ml Ova", "result": 0.032}, {"measurement": "Total IgE (1 week splenocyte cultures), individual mice m1-m4", "setting": "[3]; Group 2, 5 µg/ml Ova", "result": "0.041 and 0.023"}, {"measurement": "Total IgM + IgG (1 week splenocyte cultures), Avg.", "setting": "[3]; Group 2, 5 µg/ml Ova", "result": 150.46}, {"measurement": "Total IgM + IgG (1 week splenocyte cultures), individual mice m1-m4", "setting": "[3]; Group 2, 5 µg/ml Ova", "result": "254.36 and 46.56"}, {"measurement": "IL-4 Assays, pg/ml IL-4, Avg. of Group", "setting": "[3]; Group 2, 50 µg/ml Ova", "result": 12.57, "unit": "pg/mL"}, {"measurement": "IL-4 Assays, pg/ml IL-4, individual mice m1-m4", "setting": "[3]; Group 2, 50 µg/ml Ova", "result": "7.10 pg/mL and 11.46 pg/mL and 19.15 pg/mL and 75.36 pg/mL"}, {"measurement": "Total IgE (1 week splenocyte cultures)", "setting": "[3]; Group 2, 50 µg/ml Ova", "result": 0.024, "unit": "ng/mL"}, {"measurement": "Total IgE (1 week splenocyte cultures), Avg.", "setting": "[3]; Group 2, 50 µg/ml Ova", "result": 0.006}, {"measurement": "Total IgE (1 week splenocyte cultures), individual mice m1-m4", "setting": "[3]; Group 2, 50 µg/ml Ova", "result": "0.011 and 0.002 and 0.004 and 0.007"}, {"measurement": "Total IgM + IgG (1 week splenocyte cultures), Avg.", "setting": "[3]; Group 2, 50 µg/ml Ova", "result": 241.75}, {"measurement": "Total IgM + IgG (1 week splenocyte cultures), individual mice m1-m4", "setting": "[3]; Group 2, 50 µg/ml Ova", "result": "137.57 and 176.41 and 331.79 and 321.23"}, {"measurement": "ng/ml IgE (4X avg.)", "setting": "[3]; Group 2, serum", "result": 6.020, "unit": "ng/mL"}, {"measurement": "Total IgE (Serum), Avg.", "setting": "[3]; Group 4", "result": 0.621}, {"measurement": "Total IgE (1 week splenocyte cultures), individual mice m1-m4", "setting": "[3]; Group 4 (recent Ova challenge), 0 µg/ml Ova, listed as CRD-Leu4Ile11Cys13peptide 3(3-12)[MCP-1]", "result": "0.008 and 0.001 and 0.015 and 0.002"}, {"measurement": "Total IgE (Serum), individual mice m1-m4", "setting": "[3]; Group 4 (treated 14 days, recent Ova challenge)", "result": "0.310 and 0.298 and 0.984 and 0.890"}, {"measurement": "IL-4 Assays, pg/ml IL-4, Avg. of Group", "setting": "[3]; [5]", "result": 2.92, "unit": "pg/mL"}, {"measurement": "Total IgM + IgG (1 week splenocyte cultures), Avg.", "setting": "[3]; [5]", "result": 17.16}, {"measurement": "Total IgE (1 week splenocyte cultures)", "setting": "[3]; Group 4, 0 µg/ml Ova", "result": 0.026, "unit": "ng/mL"}, {"measurement": "Total IgE (1 week splenocyte cultures), Avg.", "setting": "[3]; Group 4, 0 µg/ml Ova", "result": 0.007}, {"measurement": "IL-4 Assays, pg/ml IL-4, Avg. of Group", "setting": "[3]; Group 4, 5 µg/ml Ova", "result": 8.05, "unit": "pg/mL"}, {"measurement": "IL-4 Assays, pg/ml IL-4, individual mice m1-m4", "setting": "[3]; Group 4, 5 µg/ml Ova", "result": "10.40 pg/mL and 12.77 pg/mL and 4.59 pg/mL and 4.45 pg/mL"}, {"measurement": "Total IgE (1 week splenocyte cultures)", "setting": "[3]; Group 4, 5 µg/ml Ova", "result": 0.096, "unit": "ng/mL"}, {"measurement": "Total IgE (1 week splenocyte cultures), Avg.", "setting": "[3]; Group 4, 5 µg/ml Ova", "result": 0.024}, {"measurement": "Total IgM + IgG (1 week splenocyte cultures), Avg.", "setting": "[3]; Group 4, 5 µg/ml Ova", "result": 163.95}, {"measurement": "Total IgE (1 week splenocyte cultures), individual mice m1-m4", "setting": "[3]; Group 4, 5 µg/ml Ova, listed as CRD-Leu4Ile11Cys13peptide 3(3-12)[MCP-1]", "result": "0.009 (2×) and 0.047 and 0.031"}, {"measurement": "Total IgM + IgG (1 week splenocyte cultures), individual mice m1-m4", "setting": "[3]; Group 4, 5 µg/ml Ova, listed as CRD-Leu4Ile11Cys13 peptide 3(3-12)[MCP]", "result": "189.07 and 249.75 and 148.16 and 68.83"}, {"measurement": "IL-4 Assays, pg/ml IL-4, Avg. of Group", "setting": "[3]; Group 4, 50 µg/ml Ova", "result": 14.45, "unit": "pg/mL"}]}]}
